Source: ChEMBL document CHEMBL1255438, “Comparative activities of TR-700 (torezolid) against staphylococcal blood isolates collected in Spain” (2010)
In brackets after ≈: the same amount, converted by molar mass.

How the values were obtained:
Assay type in all cases: functional
[1] = Antimicrobial activity against oxacillin-susceptible coagulase-negative Staphylococcus aureus assessed as percent susceptible strain by CLSI method
Staphylococcus aureus [2] = test: Antimicrobial activity against oxacillin-susceptible coagulase-negative Staphylococcus aureus assessed as inhibition of microbial growth at 2 ug/ml by CLSI method
Staphylococcus [3] = test: Antimicrobial activity against linezolid-resistant coagulase-negative Staphylococcus assessed as percent susceptible strain by CLSI method
Staphylococcus aureus [4] = test: Antimicrobial activity against oxacillin-resistant Staphylococcus aureus assessed as inhibition of microbial growth at 2 ug/ml by CLSI method
Staphylococcus aureus [5] = test: Antimicrobial activity against linezolid-susceptible Staphylococcus aureus assessed as inhibition of microbial growth at 2 ug/ml by CLSI method
Staphylococcus aureus [6] = test: Antimicrobial activity against oxacillin-susceptible coagulase-negative Staphylococcus aureus assessed as inhibition of microbial growth at 0.5 ug/ml by CLSI method
Staphylococcus [7] = test: Antimicrobial activity against linezolid-susceptible coagulase-negative Staphylococcus assessed as inhibition of microbial growth at 1 ug/ml by CLSI method
Staphylococcus aureus [8] = test: Antimicrobial activity against linezolid-susceptible Staphylococcus aureus assessed as inhibition of microbial growth at 0.5 ug/ml by CLSI method
Staphylococcus [9] = test: Antimicrobial activity against oxacillin-resistant coagulase-negative Staphylococcus aureus by CLSI method
Staphylococcus aureus [10] = test: Antimicrobial activity against oxacillin-susceptible Staphylococcus aureus assessed as percent susceptible strain by CLSI method
Staphylococcus [11] = test: Antimicrobial activity against linezolid-resistant coagulase-negative Staphylococcus by CLSI method
Staphylococcus aureus [12] = test: Antimicrobial activity against oxacillin-susceptible Staphylococcus aureus assessed as inhibition of microbial growth at =< 0.25 ug/ml by CLSI method
Staphylococcus aureus [13] = test: Antimicrobial activity against oxacillin-resistant Staphylococcus aureus by CLSI method
Staphylococcus [14] = test: Antimicrobial activity against linezolid-resistant coagulase-negative Staphylococcus assessed as inhibition of microbial growth at 128 ug/ml by CLSI method
Staphylococcus [15] = test: Antimicrobial activity against linezolid-susceptible coagulase-negative Staphylococcus assessed as inhibition of microbial growth at 0.5 ug/ml by CLSI method
Staphylococcus aureus [16] = test: Antimicrobial activity against oxacillin-resistant coagulase-negative Staphylococcus aureus assessed as inhibition of microbial growth at 1 ug/ml by CLSI method
Staphylococcus [17] = test: Antimicrobial activity against oxacillin-susceptible coagulase-negative Staphylococcus aureus by CLSI method
Staphylococcus aureus [18] = test: Antimicrobial activity against linezolid-susceptible Staphylococcus aureus assessed as inhibition of microbial growth at 4 ug/ml by CLSI method
Staphylococcus aureus [19] = test: Antimicrobial activity against oxacillin-resistant coagulase-negative Staphylococcus aureus assessed as inhibition of microbial growth at 2 ug/ml by CLSI method
Staphylococcus [20] = test: Antimicrobial activity against linezolid-susceptible coagulase-negative Staphylococcus by CLSI method
Staphylococcus aureus [21] = test: Antimicrobial activity against oxacillin-resistant Staphylococcus aureus assessed as inhibition of microbial growth at =< 0.25 ug/ml by CLSI method
Staphylococcus aureus [22] = test: Antimicrobial activity against linezolid-resistant Staphylococcus aureus assessed as percent susceptible strain by CLSI method
Staphylococcus aureus [23] = test: Antimicrobial activity against linezolid-susceptible Staphylococcus aureus assessed as inhibition of microbial growth at 1 ug/ml by CLSI method
Staphylococcus [24] = test: Antimicrobial activity against linezolid-susceptible coagulase-negative Staphylococcus assessed as inhibition of microbial growth at =< 0.25 ug/ml by CLSI method
Staphylococcus aureus [25] = test: Antimicrobial activity against oxacillin-resistant Staphylococcus aureus assessed as inhibition of microbial growth at 1 ug/ml by CLSI method
Staphylococcus aureus [26] = test: Antimicrobial activity against linezolid-susceptible Staphylococcus aureus by CLSI method
Staphylococcus [27] = test: Antimicrobial activity against linezolid-susceptible coagulase-negative Staphylococcus assessed as inhibition of microbial growth at 4 ug/ml by CLSI method
Staphylococcus [28] = test: Antimicrobial activity against linezolid-resistant coagulase-negative Staphylococcus assessed as inhibition of microbial growth at 32 ug/ml by CLSI method
Staphylococcus aureus [29] = test: Antimicrobial activity against oxacillin-susceptible Staphylococcus aureus assessed as inhibition of microbial growth at 1 ug/ml by CLSI method
Staphylococcus aureus [30] = test: Antimicrobial activity against linezolid-susceptible Staphylococcus aureus assessed as percent susceptible strain by CLSI method
Staphylococcus aureus [31] = test: Antimicrobial activity against linezolid-resistant Staphylococcus aureus assessed as inhibition of microbial growth at 16 ug/ml by CLSI method
Staphylococcus aureus [32] = test: Antimicrobial activity against oxacillin-susceptible Staphylococcus aureus by CLSI method
Staphylococcus [33] = test: Antimicrobial activity against linezolid-susceptible coagulase-negative Staphylococcus assessed as percent susceptible strain by CLSI method
Staphylococcus aureus [34] = test: Antimicrobial activity against oxacillin-resistant Staphylococcus aureus assessed as inhibition of microbial growth at 4 ug/ml by CLSI method
Staphylococcus [35] = test: Antimicrobial activity against linezolid-susceptible coagulase-negative Staphylococcus assessed as inhibition of microbial growth at 2 ug/ml by CLSI method
Staphylococcus [36] = test: Antimicrobial activity against linezolid-resistant coagulase-negative Staphylococcus assessed as inhibition of microbial growth at 256 ug/ml by CLSI method
Staphylococcus aureus [37] = test: Antimicrobial activity against oxacillin-susceptible Staphylococcus aureus assessed as inhibition of microbial growth at 2 ug/ml by CLSI method
Staphylococcus aureus [38] = test: Antimicrobial activity against methicillin-resistant Staphylococcus aureus by CLSI method
Staphylococcus aureus [39] = test: Antimicrobial activity against oxacillin-susceptible coagulase-negative Staphylococcus aureus assessed as inhibition of microbial growth at =< 0.25 ug/ml by CLSI method
Staphylococcus aureus [40] = test: Antimicrobial activity against oxacillin-susceptible Staphylococcus aureus assessed as inhibition of microbial growth at 0.5 ug/ml by CLSI method
Staphylococcus aureus [41] = test: Antimicrobial activity against oxacillin-susceptible Staphylococcus aureus assessed as inhibition of microbial growth at 4 ug/ml by CLSI method
Staphylococcus aureus [42] = test: Antimicrobial activity against oxacillin-resistant coagulase-negative Staphylococcus aureus assessed as inhibition of microbial growth at 4 ug/ml by CLSI method
Staphylococcus [43] = test: Antimicrobial activity against linezolid-resistant coagulase-negative Staphylococcus assessed as inhibition of microbial growth at 64 ug/ml by CLSI method
Staphylococcus [44] = test: Antimicrobial activity against linezolid-resistant coagulase-negative Staphylococcus assessed as inhibition of microbial growth at 16 ug/ml by CLSI method
Staphylococcus aureus [45] = test: Antimicrobial activity against linezolid-susceptible Staphylococcus aureus assessed as inhibition of microbial growth at =< 0.25 ug/ml by CLSI method
Staphylococcus aureus [46] = test: Antimicrobial activity against oxacillin-susceptible coagulase-negative Staphylococcus aureus assessed as inhibition of microbial growth at 1 ug/ml by CLSI method
Staphylococcus aureus [47] = test: Antimicrobial activity against linezolid-resistant Staphylococcus aureus by CLSI method
Staphylococcus aureus [48] = test: Antimicrobial activity against oxacillin-resistant Staphylococcus aureus assessed as inhibition of microbial growth at 0.5 ug/ml by CLSI method

CC(=O)NC[C@H]1CN(c2ccc(N3CCOCC3)c(F)c2)C(=O)O1 [LINEZOLID]
Activity [1]: 100%
inhibition at 2 µg/mL (Staphylococcus aureus [2]): 100%
Activity (Staphylococcus [3]): 0%
inhibition at 2 µg/mL (Staphylococcus aureus [4]): 84.6%
inhibition at 2 µg/mL (Staphylococcus aureus [5]): 91.1%
inhibition at 0.5 µg/mL (Staphylococcus aureus [6]): 9.8%
inhibition at 1 µg/mL (Staphylococcus [7]): 80.4%
inhibition at 0.5 µg/mL (Staphylococcus aureus [8]): 2.4%
MIC50 (Staphylococcus [9]): 1 µg/mL (≈ 2.96 µM)
MIC90 (Staphylococcus [9]): 2 µg/mL (≈ 5.93 µM)
Activity (Staphylococcus aureus [10]): 100%
MIC50 (Staphylococcus [11]): 16 µg/mL (≈ 47.4 µM)
inhibition (INH) (Staphylococcus aureus [12]): 0.5%
MIC50 (Staphylococcus aureus [13]): 2 µg/mL (≈ 5.93 µM)
MIC90 (Staphylococcus aureus [13]): 4 µg/mL (≈ 11.9 µM)
inhibition at 128 µg/mL (Staphylococcus [14]): 80%
inhibition at 0.5 µg/mL (Staphylococcus [15]): 8%
inhibition at 1 µg/mL (Staphylococcus aureus [16]): 81.6%
MIC50 (Staphylococcus [17]): 1 µg/mL (≈ 2.96 µM)
MIC90 (Staphylococcus [17]): 2 µg/mL (≈ 5.93 µM)
inhibition at 4 µg/mL (Staphylococcus aureus [18]): 100%
inhibition at 2 µg/mL (Staphylococcus aureus [19]): 98.7%
MIC50 (Staphylococcus [20]): 1 µg/mL (≈ 2.96 µM)
MIC90 (Staphylococcus [20]): 2 µg/mL (≈ 5.93 µM)
inhibition (INH) (Staphylococcus aureus [21]): 2%
Activity (Staphylococcus aureus [22]): 0%
inhibition at 1 µg/mL (Staphylococcus aureus [23]): 45.2%
inhibition (INH) (Staphylococcus [24]): 3%
inhibition at 1 µg/mL (Staphylococcus aureus [25]): 40.5%
MIC50 (Staphylococcus aureus [26]): 2 µg/mL (≈ 5.93 µM)
MIC90 (Staphylococcus aureus [26]): 2 µg/mL (≈ 5.93 µM)
inhibition at 4 µg/mL (Staphylococcus [27]): 100%
inhibition at 32 µg/mL (Staphylococcus [28]): 60%
inhibition at 1 µg/mL (Staphylococcus aureus [29]): 51%
Activity (Staphylococcus aureus [30]): 100%
inhibition at 16 µg/mL (Staphylococcus aureus [31]): 100%
MIC50 (Staphylococcus aureus [32]): 1 µg/mL (≈ 2.96 µM)
MIC90 (Staphylococcus aureus [32]): 2 µg/mL (≈ 5.93 µM)
Activity (Staphylococcus [33]): 100%
inhibition at 4 µg/mL (Staphylococcus aureus [34]): 100%
inhibition at 2 µg/mL (Staphylococcus [35]): 99%
inhibition at 256 µg/mL (Staphylococcus [36]): 100%
inhibition at 2 µg/mL (Staphylococcus aureus [37]): 99%
MIC (Staphylococcus aureus [38]): 16 µg/mL (≈ 47.4 µM)
inhibition (INH) (Staphylococcus aureus [39]): 4.9%
inhibition at 0.5 µg/mL (Staphylococcus aureus [40]): 0.5%
inhibition at 4 µg/mL (Staphylococcus aureus [41]): 100%
inhibition at 4 µg/mL (Staphylococcus aureus [42]): 100%
inhibition at 64 µg/mL (Staphylococcus [43]): 80%
inhibition at 16 µg/mL (Staphylococcus [44]): 60%
inhibition (INH) (Staphylococcus aureus [45]): 1.3%
inhibition at 1 µg/mL (Staphylococcus aureus [46]): 75.6%
MIC50 (Staphylococcus aureus [47]): 16 µg/mL (≈ 47.4 µM)
inhibition at 0.5 µg/mL (Staphylococcus aureus [48]): 4%
